Test results as given in ChEMBL document CHEMBL3751774, “Synthesis and anti-tubercular activity of conformationally-constrained and bisquinoline analogs of TMC207” (Medchemcomm, 2015).
In brackets after ≈: the same amount, converted by molar mass. Activity calls are given as the source filed them. No cut-off for these calls is given here.

Experiments:
[1] = test system: Mycobacterium tuberculosis; test: Antitubercular activity against Mycobacterium tuberculosis H37Rv assessed as growth inhibition by BACTEC assay; type: functional
[2] = test system: Mycobacterium tuberculosis; test: Antitubercular activity against Mycobacterium tuberculosis H37Rv infected in Swiss mouse assessed as mean survival time at 50 mg/kg, po 6 days/week for 28 days (reference value: 27.8 days); type: functional
[3] = Cytotoxicity against Swiss mouse BMDM assessed as reduction in cell viability after 24 hrs by MTS assay
[4] = test system: Mycobacterium tuberculosis; test: Antitubercular activity against Mycobacterium tuberculosis H37Rv infected in human blood monocyte derived macrophages assessed as reduction in colony forming units at 4 times MIC incubated for 4 days measured after 4 weeks; type: functional, organism-based
[5] = test system: Mycobacterium tuberculosis; test: Antitubercular activity against Mycobacterium tuberculosis H37Rv infected in Swiss mouse assessed as reduction in colony forming units in lungs at 50 mg/kg, po 6 days/week for 28 days measured after 3 to 4 weeks relative to control; type: functional
[6] = test system: Mycobacterium tuberculosis; test: Antitubercular activity against Mycobacterium tuberculosis H37Rv infected in Swiss mouse assessed as mean survival time at 100 mg/kg, po 6 days/week for 28 days (reference value: 27.8 days); type: functional
ATP synthase = test: Inhibition of Mycobacterium tuberculosis ATP synthase; type: protein-complex assay
[7] = Cytotoxicity against African green monkey Vero C1008 cells assessed as reduction in cell viability after 24 hrs by MTS assay; type: cell-based; conditions: Chlorocebus sabaeus
[8] = test system: Mycobacterium tuberculosis; test: Antitubercular activity against Mycobacterium tuberculosis H37Rv infected in Swiss mouse assessed as reduction in colony forming units in lungs at 100 mg/kg, po 6 days/week for 28 days measured after 3 to 4 weeks relative to control; type: functional
[9] = test system: Mycobacterium tuberculosis; test: Antitubercular activity against Mycobacterium tuberculosis H37Rv infected in mouse BMDM assessed as reduction in colony forming units at 4 times MIC incubated for 4 days measured after 4 weeks relative to control; type: functional; parameters: scale not given: the % may be the effect or the level left
[10] = test system: Mycobacterium tuberculosis; test: Antitubercular activity against Mycobacterium tuberculosis H37Rv assessed as growth inhibition after 4 weeks; type: functional; conditions: 672 h
[11] = test system: Mycobacterium tuberculosis; test: Antitubercular activity against Mycobacterium tuberculosis H37Rv infected in Swiss mouse assessed as reduction in colony forming units in lungs at 100 mg/kg, po for 28 days measured after 3 to 4 weeks relative to control; type: functional
[12] = test system: Mycobacterium tuberculosis; test: Antitubercular activity against Mycobacterium tuberculosis H37Rv infected in Swiss mouse assessed as mean survival time at 100 mg/kg, po for 28 days (reference value: 27.8 days); type: functional
[13] = test system: Mycobacterium tuberculosis; test: Antitubercular activity against Mycobacterium tuberculosis H37Rv infected in Swiss mouse assessed as mean survival time at 25 mg/kg, po for 28 days (reference value: 27.8 days); type: functional
[14] = test system: Mycobacterium tuberculosis; test: Antitubercular activity against Mycobacterium tuberculosis H37Rv infected in Swiss mouse assessed as reduction in colony forming units in lungs at 25 mg/kg, po for 28 days measured after 3 to 4 weeks relative to control; type: functional

| Structure (SMILES) | MIC90 [1] | IC50 (ATP synthase) | MIC [10] | other results |
| --- | --- | --- | --- | --- |
| COc1nc2ccc(Br)cc2cc1[C@H](c1ccccc1)[C@@]1(O)c2cc(Br)ccc2CC[C@@H]1CN(C)C (racemic) | > 50 µM | – | – | – |
| COc1nc2ccccc2cc1C(c1cc2ccccc2nc1OC)C(O)(CCN(C)C)c1ccccc1 (stereo unspecified) | – | 70 nM | 0.39 µM (≈ 0.198 µg/mL) | MST [2]: 29 days; IC50 [3]: > 100000 nM; Activity [4]: Active; fold change (FC) [5]: 118; MST [6]: 25 days; IC50 [7]: > 100000 nM; fold change (FC) [8]: 808.22; Activity [9]: 90% |
| COc1nc2ccccc2cc1C(c1cc2ccccc2nc1OC)C(O)(CCN(C)C)c1ccc(Br)cc1 (stereo unspecified) | – | 10 nM | 0.66 µM (≈ 0.387 µg/mL) | IC50 [3]: > 100000 nM; IC50 [7]: > 100000 nM |
| COc1nc2ccc(Br)cc2cc1[C@H](c1ccccc1)[C@@]1(O)c2ccc(Br)cc2C[C@@H]1CN(C)C (racemic) | > 50 µM | – | – | – |
| CC[C@@H](CO)NCCN[C@@H](CC)CO [ETHAMBUTOL] | – | – | – | fold change (FC) [11]: 26.94; MST [12]: 29 days |
| COc1nc2ccc(Br)cc2cc1[C@H](c1ccccc1)[C@@]1(O)c2ccccc2CC[C@@H]1CN(C)C (racemic) | > 50 µM | – | – | – |
| COc1nc2ccc(Br)cc2cc1[C@@H](c1ccccc1)[C@@]1(O)c2ccccc2CCC[C@@H]1CN(C)C (racemic) | 45.8 µM (≈ 25 µg/mL) | – | – | – |
| COc1nc2ccc(Br)cc2cc1[C@@H](c1ccccc1)[C@@]1(O)c2cc(Br)ccc2CC[C@@H]1CN(C)C (racemic) | > 50 µM | – | – | – |
| CO[C@H]1/C=C/O[C@@]2(C)Oc3c(C)c(O)c4c(O)c(c(/C=N/N5CCN(C)CC5)c(O)c4c3C2=O)NC(=O)/C(C)=C\C=C\[C@H](C)[C@H](O)[C@@H](C)[C@@H](O)[C@@H](C)[C@H](OC(C)=O)[C@@H]1C [RIFAMPIN] | – | – | – | Activity [9]: 98% |
| NNC(=O)c1ccncc1 [ISONIAZID] | – | – | – | MST [13]: 29 days; Activity [9]: 98%; fold change (FC) [14]: 257.08 |
| COc1nc2ccc(Br)cc2cc1[C@@H](c1ccccc1)[C@@]1(O)c2ccccc2CC[C@@H]1CN(C)C (racemic) | > 50 µM | – | – | – |
| COc1nc2ccc(Br)cc2cc1[C@@H](c1ccccc1)[C@@]1(O)c2cc(C)ccc2C[C@@H]1CN(C)C (racemic) | > 50 µM | – | – | – |
| COc1nc2ccc(Br)cc2cc1[C@H](c1ccccc1)[C@@]1(O)c2cc(Cl)ccc2OCC[C@@H]1CN(C)C (racemic) | > 50 µM | – | – | – |
| COc1nc2ccc(Br)cc2cc1[C@H](c1ccccc1)[C@@]1(O)c2ccccc2C[C@@H]1CN(C)C (racemic) | 12.1 µM (≈ 6.26 µg/mL) | – | – | – |
| COc1nc2ccc(Br)cc2cc1[C@@H](c1ccccc1)[C@@]1(O)c2ccccc2C[C@@H]1CN(C)C (racemic) | 48.3 µM (≈ 25 µg/mL) | – | – | – |
| C=CCOc1nc2ccccc2cc1C(c1cc2ccccc2nc1OCC=C)C(O)(CCN(C)C)c1ccccc1 (stereo unspecified) | – | 40 nM | > 50 µM | – |
| CN(C)CCC(O)(c1cccc(Br)c1)C1c2cc3ccccc3nc2OCC/C=C\CCOc2nc3ccccc3cc21 (stereo unspecified) | – | 10 nM | – | – |
| COc1nc2ccc(Br)cc2cc1[C@@H](c1ccccc1)[C@@]1(O)c2ccccc2OCC[C@@H]1CN(C)C (racemic) | 22.8 µM (≈ 12.5 µg/mL) | – | – | – |
| COc1nc2ccc(Br)cc2cc1[C@H](c1ccccc1)[C@@]1(O)c2cc(C)ccc2C[C@@H]1CN(C)C (racemic) | 12.5 µM (≈ 6.64 µg/mL) | – | – | – |
| COc1nc2ccccc2cc1C(c1cc2ccccc2nc1OC)C(O)(CCN(C)C)c1cccc(Br)c1 (stereo unspecified) | – | 50 nM | 1.56 µM (≈ 0.915 µg/mL) | IC50 [3]: > 100000 nM; IC50 [7]: > 100000 nM |
| COc1nc2ccccc2cc1C(c1cc2ccccc2nc1OC)C(O)(CCN(C)C)c1cccc2ccccc12 (stereo unspecified) | – | 1 nM | 0.7 µM (≈ 0.39 µg/mL) | IC50 [3]: > 100000 nM; IC50 [7]: > 100000 nM |
| C=CCCOc1nc2ccccc2cc1C(c1cc2ccccc2nc1OCCC=C)C(O)(CCN(C)C)c1ccc(Br)cc1 (stereo unspecified) | – | 80 nM | 1.56 µM (≈ 1.04 µg/mL) | IC50 [3]: > 100000 nM; IC50 [7]: > 100000 nM |
| COc1nc2ccc(Br)cc2cc1[C@@H](c1ccccc1)[C@@]1(O)c2ccccc2OC[C@@H]1CN(C)C (racemic) | > 50 µM | – | – | – |
| COc1nc2ccc(Br)cc2cc1[C@@H](c1ccccc1)[C@@]1(O)c2ccc(Br)cc2C[C@@H]1CN(C)C (racemic) | > 50 µM | – | – | – |
| C=CCOc1nc2ccccc2cc1C(c1cc2ccccc2nc1OCC=C)C(O)(CCN(C)C)c1cccc(Br)c1 (stereo unspecified) | – | 30 nM | > 50 µM | – |
| COc1nc2ccc(Br)cc2cc1[C@H](c1ccccc1)[C@@]1(O)c2ccccc2OC[C@@H]1CN(C)C (racemic) | > 50 µM | – | – | – |
| COc1nc2ccc(Br)cc2cc1[C@@H](c1ccccc1)[C@@]1(O)c2cc(Cl)ccc2OCC[C@@H]1CN(C)C (racemic) | > 50 µM | – | – | – |
| COc1nc2ccccc2cc1C(c1cc2ccccc2nc1OC)C(O)(CCN(C)C)c1ccc2ccccc2c1 (stereo unspecified) | – | 30 nM | 0.39 µM (≈ 0.218 µg/mL) | IC50 [3]: > 100000 nM; Activity [4]: Active; IC50 [7]: > 100000 nM; Activity [9]: 91% |
| C=CCOc1nc2ccccc2cc1C(c1cc2ccccc2nc1OCC=C)C(O)(CCN(C)C)c1ccc(Br)cc1 (stereo unspecified) | – | 280 nM | > 50 µM | – |
